Where “and” joins values, the source holds several entries; their conditions need not be identical. Equal entries are not always repeated. Where two headings read alike, the source gives them in different places.
Tests used:
Male FMR1 knockout mice [1] = test: Suppression of audiogenic seizures in FMR1 mouse model of Fragile X Syndrome; format: in vivo; settings: 125 dB tone, vs vehicle Group (1); for Latency to seizure: 5-minute test, Compound A 5 mg/kg oral 150 min prior, MPEP 30 mg/kg i.p. 30 min prior, FIG. 5; for Percent seizure (seizure rates): Compound A 5 mg/kg oral, MPEP 30 mg/kg i.p., p<0.05, FIG. 6
Experimental: Male FMR1 knockout mice were bred at PsychoGenics. The mice were housed in OPTI-Mice ventilated cages for the duration of the study. All mice were acclimated to the environment, examined, handled, and weighed prior to initiation of the study to assure adequate health and suitability and to minimize non-specific stress associated with manipulation. During the course of the study, 12/12 light/dark cycles were maintained. The room temperature was maintained between 20 and 23° C. with a relative humidity maintained around 50%. Chow and water were provided ad libitum for the duration of the study. Each mouse was randomly assigned across treatment groups. The testing was performed during the animals' light cycle phase at 3 weeks of age.
Prior to audiogenic seizures, on test day, three groups of mice were pre-treated as follows: • Group (1): a vehicle orally administered at a dose volume of 10 mL/kg, 150 minutes prior to testing. • Group (2): 6-Methyl-2-(phenylethynyl) pyridine HCI (“MPEP”) (Sigma Aldrich; 30 mg/kg) was dissolved in sterile injectable saline and was administered by intraperitoneal injection at a dose volume of 10 mL/kg, 30 minutes prior to testing.
After the pre-treatments, the mice of Groups (1)-(3) were individually placed in a Plexiglas chamber and allowed to explore for 15 seconds. Then, they were exposed to a 125 dB tone. The observer was blinded to the pre-treatment conditions during the test. The mice were scored by the observer based on their response, latency, and seizure intensity during a 5-minute test as follows: • 0: no response • 1. wild running and jumping • 2: clonic seizures • 3: clonic-tonic seizures • 4: tonic seizures • 5: respiratory arrest
The following endpoints were reported. […] Latency to seizure (max 300 sec. if no seizure) • 2. Percent seizure • 3. Seizure score

[2] = test system: CDKL5 male hemizygous (-/Y) mice; test: Hindpaw clasping (amplexus) test in CDKL5 knock-out mice model; format: in vivo; settings: Compound A 5 mg/kg once per day oral gavage; vs CDKL5-/Y vehicle Group (2); FIG. 1
Experimental: A hind paw clasping test was performed in accordance with the procedures outlined by Wang et al., PNAS, vol. 109, no. 52, pp. 21516-21521 (2012). The test is done in a CDKL5 knock-out mice model. Mice are suspended for a two-minute trial. If clasping occurs for two seconds, the mouse is positive for CDKL5 deficiency, which is a neurological impairment. Wang et al. noted the CDKL5 mutant mice, but no quantification was made. Tang et al., J. Neurosci. 37(31):7420-7437 (2017) reported 17/18 (94%) hemi male mice were positive for the clasp phenotype.
(§1) Neurobehavioral assays were run when the mice were 8-10 weeks old. Tissues were collected at the end of the study to determine plasma and CNS PK.
If clasping occurs for two seconds, the mouse is positive for CDKL5 deficiency.

[3] = test system: CDKL5 male hemizygous (-/Y) mice; test: Open Field Test in CDKL5 knock-out mice model; format: in vivo; settings: Compound A 5 mg/kg once per day oral; 15-minute trial; vs Groups (1) and (2); FIGS. 2A, 2B
Experimental: Spontaneous activity in an Open Field Arena is commonly used to assess general activity and ambulation. Mice were placed in the center of an arena for a fifteen-minute trial. The horizontal, vertical (rearing) and center activity are dependent variables.
FIG. 2A provides the results per minute from 0 to 15 minutes. FIG. 2B provides the results in five-minute intervals from 5 to 15 minutes.

[4] = Fraction unbound in plasma (fu, plasma); format: in vitro ADME; settings: mouse
Source text: An in vitro profile of the PDE10A inhibitor was created for the CDKL5-/Y mice.

[5] = Plasma and brain exposure analysis after oral administration; format: in vivo; settings: CDKL5-/Y mice; for concentration at 24 h: male, CDKL5-/Y, mouse, 5 mg/kg
Source text: as §1
In Table 1, “LLOQ” is the “lower limit of quantification”, and it is used to indicate the sensitivity of the assays. The numbers in plasma and brain columns are in ng/mL for plasma and ng/g for brain.

Male FMR1 knockout mice [6] = test: Open Field Test in FMR1 mouse model of FXS; format: in vivo; settings: Compound A 5 mg/kg oral for two weeks; FIGS. 7 and 8
Experimental: Male FMR1 knockout (“KO”) mice and wild-type (“WT”) mice were bred at PsychoGenics. These mice were handled and chosen according to Example 5. However, the open field test started at 10 weeks of age, following 2 weeks of dosing. Three groups of mice were tested as follows: • Group (1): WT—Vehicle Group: a vehicle was orally administered for two weeks at a dose volume of 10 mL/kg. On testing days, the vehicle was administered 150 minutes prior to testing. • Group (2): FMR1 KO—Group: a vehicle was orally administered for two weeks at a dose volume of 10 mL/kg.
Open field chambers made of Plexiglas square chambers (27.3×27.3×20.3 cm; Med Associates Inc., St Albans, VT) surrounded by infrared photo beams (16×16×16) were used to measure horizontal and vertical activity of tested mice. The mice were brought into the chamber for at least 1 hour acclimation to the experimental room conditions prior to testing. Following 150 minutes of pre-treatment, the mice were placed in the center of the chamber for a 60-minute test period. After the 60-minutes, the mice were placed back into their home cage. During the test period, locomotor activity was measured in 5 minute intervals and total distance traveled was measured.

Male FMR1 knockout mice [7] = test: Fear Conditioning test in FMR1 mouse model of FXS; format: in vivo
Experimental: After completion of the open field test described in Example 6, a Fear Conditioning test was conducted on the mice of Groups (1)-(3) in a fear conditioning system manufactured by Coulbourn Instruments (PA, USA).
On day 1, mice were placed in a conditioning chamber to habituate to the context for 2 minutes […]. A tone was presented for 20 seconds. 30 seconds after the CS ended, a foot shock (1 s, 0.5 mA) was presented (US). The pairing of the CS and US was repeated a total of 3 times, with an interval of 60 seconds between pairings. Mice remained in the conditioning chamber for another 60 seconds, and then returned to their home cage.
In the morning of day 2, mice were tested for contextual memory. Mice were placed in chambers for 5 minutes. In the afternoon of day 2, mice were tested for cued memory. Mice were placed in the conditioning chamber to habituate to the context for 2 minutes (Pre-Cue). Then, the CS was presented for a total of three times for 20 seconds, with 60 second inter-trial intervals. Freezing behavior, defined as the complete lack of movement, was captured automatically with a video system and Freeze View software (Coulbourn Instruments, PA, USA).

| SMILES | Latency to seizure (Male FMR1 knockout mice [1]) | Percent seizure (seizure rates) (Male FMR1 knockout mice [1]) | percentage of no clasping [2] | total distance traveled in the open field [3] | fraction unbound [4] | Concentration in mouse plasma, individual sample ([5]; oral 5 mg/kg once per day, 14 days, 24 hours after the last dose, LLOQ 0.1) | Concentration in mouse brain, individual sample ([5]; oral 5 mg/kg once per day, 14 days, 24 hours after the last dose, LLOQ 0.5) | concentration at 24 h ([5]; brain, po, oral 5 mg/kg once per day, 14 days, 24 hours after the last dose, LLOQ 0.5, read-out: Concentration in mouse brain, individual sample) [ng/g] | concentration at 24 h ([5]; brain, po, oral 5 mg/kg once per day, 14 days, 24 hours after the last dose, N=6-7, read-out: Concentration in mouse brain, Mean) [ng/g] | concentration at 24 h ([5]; plasma, oral, 24 hours after the last administration, read-out: plasma concentration in all mice vs target IC50 in vivo) [ng/mL] | concentration at 24 h ([5]; plasma, po, oral 5 mg/kg once per day, 14 days, 24 hours after the last dose, N=6-7, read-out: Concentration in mouse plasma, Mean) [ng/mL] | hyperactivity (total distance traveled, 60-minute open field test) (Male FMR1 knockout mice [6]) | freezing response, contextual fear conditioning time course (Male FMR1 knockout mice [7]; 5 minute test, minute 2 and minute 5, Compound A 5 mg/kg oral, FIG. 10) | freezing behavior during Pre-Cue, cued fear conditioning (Male FMR1 knockout mice [7]; ANOVA between treatment groups, FIG. 11) | freezing response during Cue, cued fear conditioning (Male FMR1 knockout mice [7]; FMR1 mice, p=0.06, FIG. 11) | freezing response during Post-Cue, cued fear conditioning (Male FMR1 knockout mice [7]; FMR1 mice, FIG. 11) |
| --- | --- | --- | --- | --- | --- | --- | --- | --- | --- | --- | --- | --- | --- | --- | --- | --- |
| Cc1cccc(C#Cc2ccccc2)n1.Cl [MPEP, 6-Methyl-2-(phenylethynyl) pyridine HCl, reference compound] | increased the latency to seizure | significantly decreased seizure rates |  |  |  |  |  |  |  |  |  |  |  |  |  |  |
| COc1cn(-c2ccc(-n3cccn3)cc2F)nc(-c2ccnn2-c2ccccc2)c1=O [Compound A, 1-[2-fluoro-4-(1H-pyrazol-1-yl)phenyl]-5-methoxy-3-(1-phenyl-1H-pyrazol-5-yl)pyridazin-4(1H)-one] | increased the latency to seizure | significantly decreased seizure rates | increased the percentage of no clasping | significantly suppressed the total distance traveled | 0.116 | 4.3 ng/mL and 8.0 ng/mL and 4.4 ng/mL and 4.8 ng/mL and 2.8 ng/mL and 7.0 ng/mL and 3.1 ng/mL | 48.2 ng/g and 38.9 ng/g and 64.5 ng/g and 44.9 ng/g and 43.8 ng/g | 36.3 | 46.1 | > 1.1 | 4.9 | suppresses hyperactivity | increased freezing response | no significant differences | strong trend to increasing freezing response | increased freezing response |
